These results are taken from US20210189342A1, “COMPOSITIONS AND METHODS FOR MODULATING MONOCYTE AND MACROPHAGE INFLAMMATORY PHENOTYPES AND IMMUNOTHERAPY USES THEREOF” (Verseau Therapeutics, Inc., priority 2018, published 2021).

Format in all cases: cell-based, human
Data set [1] relates to IGSF6. The experiment in a line: siRNA dose response, IGSF6 mRNA knockdown, Dual-Glo Luciferase Assay. As to conditions: Hepa1-6 + reporter plasmid, 24 hr. How it is done:
(§1) Dose response curves for siRNAs were generated in vitro using a variety of cell lines according to Table 4.
(§2) Briefly, cells were seeded in 96-well plates and reverse transfected with siRNA, Lipofectamine® 2000 (0.5 uL/well; ThermoFisher), and, in some cases, a reporter plasmid (50 ng/well). The reporter plasmid (psiCHECK™-2, Promega) encoded both firefly luciferase and the gene of interest fused to renilla luciferase; silencing of the gene of interest results in proportional silencing of renilla luciferase but leaves firefly luciferase unaffected as an internal control.
(§3) After 24 hr incubation at 37° C., mRNA knockdown was measured using an endpoint assay. For targets without a reporter plasmid, a branched DNA (bDNA) assay was performed according to the manufacturer's instructions (QuantiGene® Singleplex Gene Expression Assay, ThermoFisher) to measure both the target gene and GAPDH (housekeeping gene) mRNA. Data are plotted as siRNA concentration (nM) vs. remaining mRNA (ratio of target gene to GAPDH, normalized to mock siRNA-transfected cells). For targets with a reporter plasmid, a Dual-Glo® Luciferase Assay was performed according to the manufacturer's instructions (Promega) to measure firefly and renilla luciferase expression. Data are plotted as siRNA concentration (nM) vs. remaining mRNA (ratio of renilla to firefly luminescence, normalized to mock siRNA-transfected cells).
(§4) For all dose response curves, a 4-parameter logistic model was applied to determine the IC50 of each siRNA sequence (Table 5 and FIG. 2). Data shown in Table 5 and FIG. 2 represent the mean of quadruplicates, +/−standard deviation.

The test system of data set [2] is CD33. The data set can be described thus: siRNA dose response, CD33 mRNA knockdown, bDNA Assay. As to conditions: SK-MEL-2, 24 hr. How it is done: as §1, §2, §3, §4
Data set [3] relates to LST1. The experiment in a line: siRNA dose response, LST1 mRNA knockdown, bDNA Assay. The following applies: THP-1, 24 hr. How it is done:
as §1, §2, §3, §4

Data set [4] has as its system CXorf21. The data set can be described thus: siRNA dose response, CXorf21 mRNA knockdown, bDNA Assay. The following applies: THP-1, 24 hr. How it is done: as §1, §2, §3, §4
Data set [5] concerns CCR5. The data set can be described thus: siRNA dose response, CCR5 mRNA knockdown, Dual-Glo Luciferase Assay. The following applies: Hepal-6 + reporter plasmid, 24 hr. How it is done:
as §1, §2, §3, §4

In general, IC50 refers to the concentration that gives 50% inhibition. For the substance “XD-09649: siRNA targeting IGSF6 (sense 5'-acAuAuAucAucAgGucuudTsdT-3'; antisense 5'-AAGACCUGAUGAuAuAUGUdTsdT-3'; RNA with 2'-O-methyl and phosphorothioate modifications, case key not given here, as printed in the source, key not given here)”, the IC50 in data set [1] was found to be 0.503 nM.

“XD-09732: siRNA targeting CD33 (sense 5'-ggccccAGGAcuAcucAcudTsdT-3'; antisense 5'-AGUGAGuAGUCCUGGGGCCdTsdT-3'; as printed in the source, key not given here)”: in data set [2], half-maximal inhibition (IC50) required 5.4 nM.

As for “XD-09734: siRNA targeting CD33 (sense 5'-acuccucGGuGcucAuAAudTsdT-3'; antisense 5'-AUuAUGAGcACCGAGGAGUdTsdT-3'; as printed in the source, key not given here)”, the IC50 in data set [2] turned out to be 0.74 nM.

The substance “XD-09735: siRNA targeting CD33 (sense 5'-caAcGucAccuAuguuccAdTsdT-3'; antisense 5'-UGGAAcAuAGGUGACGUUGdTsdT-3'; as printed in the source, key not given here)” returned an IC50 in data set [2] of 0.818 nM.

Consider “XD-09736: siRNA targeting CD33 (sense 5'-ucAccuAuGuuccacAGAAdTsdT-3'; antisense 5'-UUCUGUGGAAcAuAGGUGAdTsdT-3'; as printed in the source, key not given here)”, for which the IC50 in data set [2] worked out at 0.176 nM.

With “XD-09737: siRNA targeting CD33 (sense 5'-cccAAcAAcuGGuaucuuudTsdT-3'; antisense 5'-AAAGAuACcAGUUGUUGGGdTsdT-3'; RNA with 2'-O-methyl and phosphorothioate modifications, case key not given here, as printed in the source, key not given here)”, the IC50 in data set [2] came out at 0.334 nM.

In data set [2], “XD-09738: siRNA targeting CD33 (sense 5'-ccAGAGcAGGAGugGuucAdTsdT-3'; antisense 5'-UGAACcACUCCUGCUCUGGdTsdT-3'; RNA with 2'-O-methyl and phosphorothioate modifications, case key not given here, as printed in the source, key not given here)” had an IC50 of 0.22 nM.

In the case of “XD-09750: siRNA targeting LST1 (sense 5'-cuGAucAuuucGccuAAAAdTsdT-3'; antisense 5'-UUUuAGGCGAAAUGAUcAGdTsdT-3'; RNA with 2'-O-methyl and phosphorothioate modifications, case key not given here, as printed in the source, key not given here)”, in data set [3], the IC50 is 3.59 nM.

In the case of “XD-09751: siRNA targeting LST1 (sense 5'-cauuucGccuAAAaGAGcAdTsdT-3'; antisense 5'-UGCUCUUUuAGGCGAAAUGdTsdT-3'; RNA with 2'-O-methyl and phosphorothioate modifications, case key not given here, as printed in the source, key not given here)”, in data set [3], the IC50 amounted to 1.54 nM.

Consider “XD-09752: siRNA targeting LST1 (sense 5'-gccuAAAAGAGcAaGGAcudTsdT-3'; antisense 5'-AGUCCUUGCUCUUUuAGGCdTsdT-3'; RNA with 2'-O-methyl and phosphorothioate modifications, case key not given here, as printed in the source, key not given here)”, for which the IC50 in data set [3] came to 0.737 nM.

“XD-09754: siRNA targeting LST1 (sense 5'-caAGGAGGAuccAaGAGcudTsdT-3'; antisense 5'-AGCUCUUGGAUCCUCCUUGdTsdT-3'; RNA with 2'-O-methyl and phosphorothioate modifications, case key not given here, as printed in the source, key not given here)” registered an IC50 in data set [3] of 0.052 nM.

Turning to “XD-09755: siRNA targeting LST1 (sense 5'-ggAuccAAGAGcugAcuAudTsdT-3'; antisense 5'-AuAGUcAGCUCUUGGAUCCdTsdT-3'; RNA with 2'-O-methyl and phosphorothioate modifications, case key not given here, as printed in the source, key not given here)”, the IC50 in data set [3] worked out at 0.046 nM.

In turn, “XD-09756: siRNA targeting LST1 (sense 5'-ucucGAGccuccGuucAAAdTsdT-3'; antisense 5'-UUUGAACGGAGGCUCGAGAdTsdT-3'; RNA with 2'-O-methyl and phosphorothioate modifications, case key not given here, as printed in the source, key not given here)” had an IC50 in data set [3] of 6.6 nM.

“XD-09758: siRNA targeting LST1 (sense 5'-ugAucAucAucAAaAcuuAdTsdT-3'; antisense 5'-uAAGUUUUGAUGAUGAUcAdTsdT-3'; as printed in the source, key not given here)” came in with a half-inhibitory concentration (IC50) in data set [3] of 8.21 nM.

“XD-10502: siRNA targeting CXorf21 (sense 5'-cuGucAGAAGGGuaucucAdTsdT-3'; antisense 5'-UGAGAuACCCUUCUGAcAGdTsdT-3'; RNA with 2'-O-methyl and phosphorothioate modifications, case key not given here, as printed in the source, key not given here)” gave an IC50 in data set [4] of 6.03 nM.

The substance “XD-10503: siRNA targeting CXorf21 (sense 5'-cuAcGuGAGcuGcaAAucAdTsdT-3'; antisense 5'-UGAUUUGcAGCUcACGuAGdTsdT-3'; RNA with 2'-O-methyl and phosphorothioate modifications, case key not given here, as printed in the source, key not given here)” displayed an IC50 in data set [4] of 0.654 nM.

Substance “XD-10504: siRNA targeting CXorf21 (sense 5'-gguGAuGGccAuuaAuucAdTsdT-3'; antisense 5'-UGAAUuAAUGGCcAUcACCdTsdT-3'; as printed in the source, key not given here)” yielded an IC50 in data set [4] of 1.76 nM.

“XD-10505: siRNA targeting CXorf21 (sense 5'-cauuAuGGAcAccguGuuudTsdT-3'; antisense 5'-AAAcACGGUGUCcAuAAUGdTsdT-3'; RNA with 2'-O-methyl and phosphorothioate modifications, case key not given here, as printed in the source, key not given here)” registered an IC50 in data set [4] of 13.1 nM.

As to “XD-10506: siRNA targeting CXorf21 (sense 5'-gucuGAAcucAucauGAcAdTsdT-3'; antisense 5'-UGUcAUGAUGAGUUcAGACdTsdT-3'; as printed in the source, key not given here)”, half-maximal inhibition in data set [4] (IC50) required 0.75 nM.

Turning to “XD-10508: siRNA targeting CXorf21 (sense 5'-caAuGuAAAuccAuAGAGAdTsdT-3'; antisense 5'-UCUCuAUGGAUUuAcAUUGdTsdT-3'; as printed in the source, key not given here)”, in data set [4], the IC50 is 1.65 nM.

In the case of “XD-10550: siRNA targeting CCR5 (sense 5'-ggAAcAAGAuGGAuuAucAdTsdT-3'; antisense 5'-UGAuAAUCcAUCUUGUUCCdTsdT-3'; as printed in the source, key not given here)”, the IC50 in data set [5] is 0.017 nM.

In the case of “XD-10551: siRNA targeting CCR5 (sense 5'-ccAuAcAGucAGuaucAAudTsdT-3'; antisense 5'-AUUGAuACUGACUGuAUGGdTsdT-3'; as printed in the source, key not given here)”, in data set [5], the IC50 was 0.046 nM.

“XD-10552: siRNA targeting CCR5 (sense 5'-cauuAAAGAuAGucAucuudTsdT-3'; antisense 5'-AAGAUGACuAUCUUuAAUGdTsdT-3'; as printed in the source, key not given here)”: the IC50 in data set [5] worked out at 0.07 nM.

On to “XD-10553: siRNA targeting CCR5 (sense 5'-agGuAuGGuuAAuaAGuuudTsdT-3'; antisense 5'-AAACUuAUuAACcAuACCUdTsdT-3'; as printed in the source, key not given here)”, for which the IC50 in data set [5] was determined as 0.361 nM.

On to “XD-10558: siRNA targeting CCR5 (sense 5'-gcAcAuAcuuGAGacuGuudTsdT-3'; antisense 5'-AAcAGUCUcAAGuAUGUGCdTsdT-3'; as printed in the source, key not given here)”, for which the IC50 in data set [5] worked out at 1.05 nM.

Turning to “XD-10559: siRNA targeting CCR5 (sense 5'-gcAAcGAAGGGAAauGucudTsdT-3'; antisense 5'-AGAcAUUUCCCUUCGUUGCdTsdT-3'; as printed in the source, key not given here)”, the IC50 in data set [5] was 1.02 nM.
